Test systems include HL-60(TB) leukemia; IGROV1 ovarian; MALME-3M melanoma; MDA-MB-435; MOLT-4 leukemia; NCI/ADR-RES ovarian; OVCAR-3 ovarian; PC-3 prostate; UACC-62 melanoma; NCI-H23 lung.
What all share (assay): growth of human tumour cells (NCI), 48 h

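In this assay, cells in 96-well plates receive the compound at five concentrations for 48 hours. Endpoints are linearly interpolated between the surrounding concentrations. TGI denotes the concentration required for complete inhibition of growth.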 Where only a bound is given, the exact number is not on record here.

With `CCOC(=O)c1nc2ccc(C(F)(F)F)cc2nc1Oc1cc(OC)cc(OC)c1`, the TGI with HL-60(TB) leukemia, in the test on IGROV1 ovarian, in the test with MALME-3M melanoma, with MDA-MB-435, with MOLT-4 leukemia and in the test with NCI/ADR-RES ovarian was greater than 100 µM throughout. Besides, the TGI in the test on OVCAR-3 ovarian, in the test on PC-3 prostate and in the test with UACC-62 melanoma was greater than 100 µM in each case.
For `OC(CCNCc1ccccc1)c1ccc2ccccc2c1` (stereo not drawn), the TGI in the test with HL-60(TB) leukemia came to 43.2 µM; in the test with IGROV1 ovarian it was 30.6 µM; with MALME-3M melanoma, 38.7 µM; in the test on MDA-MB-435, 44.2 µM; with MOLT-4 leukemia it was 84.8 µM; in the test with NCI-H23 lung it was 62.1 µM. Further, the TGI with NCI/ADR-RES ovarian worked out at 49.4 µM; in the test on OVCAR-3 ovarian, 29.5 µM; with PC-3 prostate, 47.4 µM; in the test on UACC-62 melanoma, 35.8 µM.
With `COC(=O)C(Cc1ccccc1)NP(=O)(O)OCC1OC(n2cc(F)c(=O)[nH]c2=O)CC1O` (stereo not drawn), the TGI in the test with HL-60(TB) leukemia is greater than 100 µM; in the test with IGROV1 ovarian, greater than 100 µM; in the test on MALME-3M melanoma it was greater than 100 µM; with MDA-MB-435 it was greater than 100 µM; in the test on MOLT-4 leukemia it was greater than 93.9 µM; in the test with NCI-H23 lung, greater than 100 µM. In addition, the TGI in the test on NCI/ADR-RES ovarian, in the test on OVCAR-3 ovarian, with PC-3 prostate and with UACC-62 melanoma was greater than 100 µM throughout.
In the case of `CCOc1cc(C2CC(c3ccc(NS(=O)(=O)c4cc([N+](=O)[O-])ccc4C)cc3)=NN2c2ccc([N+](=O)[O-])cc2[N+](=O)[O-])ccc1O` (stereo not drawn), the TGI with HL-60(TB) leukemia is greater than 100 µM; in the test with IGROV1 ovarian, 46.2 µM; with MALME-3M melanoma, 23.2 µM; in the test with MDA-MB-435, greater than 100 µM; in the test with MOLT-4 leukemia it was greater than 100 µM; in the test on NCI-H23 lung, 42.9 µM. In addition, the TGI with NCI/ADR-RES ovarian was 63.8 µM; in the test on OVCAR-3 ovarian it was 29 µM; in the test with PC-3 prostate, 64.7 µM.
`O=C(Nc1nc2ccccc2s1)c1cc([N+](=O)[O-])ccc1Cl`: the TGI with HL-60(TB) leukemia was 4.41 µM; in the test with MALME-3M melanoma, greater than 100 µM; with MDA-MB-435, greater than 100 µM; with MOLT-4 leukemia it was 9.93 µM; in the test on NCI-H23 lung, greater than 43.4 µM; in the test with NCI/ADR-RES ovarian it was greater than 76.4 µM. In addition, the TGI in the test with OVCAR-3 ovarian was greater than 82.5 µM; with PC-3 prostate, greater than 70.3 µM; in the test with UACC-62 melanoma, greater than 100 µM.
Regarding `COc1ccc2c(c1)c(CC(=O)O)c(C)n2C(=O)c1ccc(Cl)cc1`, the TGI in the test on HL-60(TB) leukemia, with IGROV1 ovarian, in the test on MALME-3M melanoma, in the test on MDA-MB-435, in the test with MOLT-4 leukemia and in the test with NCI-H23 lung was greater than 100 µM in each case. Further, the TGI in the test on NCI/ADR-RES ovarian, with OVCAR-3 ovarian and in the test on PC-3 prostate was greater than 100 µM throughout.
In the case of `Nc1ccccc1CC(O)C(=O)O` (stereo not drawn), the TGI in the test on HL-60(TB) leukemia, in the test on MALME-3M melanoma, with MDA-MB-435, with MOLT-4 leukemia, with NCI-H23 lung and in the test on NCI/ADR-RES ovarian was greater than 100 µM each time. The TGI in the test on OVCAR-3 ovarian, in the test on PC-3 prostate and in the test on UACC-62 melanoma was greater than 100 µM throughout.
For the molecule `COC(=O)c1c(O)ccc2c1c1c(n2Cc2cccc(C)c2)C(=O)c2ccccc2C1=O`, the TGI turned out to be 45.9 µM with HL-60(TB) leukemia; 24.2 µM in the test on IGROV1 ovarian; 34.1 µM with MALME-3M melanoma; 23.3 µM in the test on MDA-MB-435; 17.5 µM in the test on MOLT-4 leukemia; 26 µM with NCI-H23 lung. Moreover, the TGI was determined as 25 µM in the test on NCI/ADR-RES ovarian, 22.8 µM in the test on OVCAR-3 ovarian and 23.5 µM with PC-3 prostate.
Regarding `COc1ccccc1NC(=O)CC(=O)N1N=C(C)C(N=Nc2ccc(C(=O)O)cc2)C1=O` (stereo not drawn), the TGI in the test on HL-60(TB) leukemia, with IGROV1 ovarian, with MALME-3M melanoma, with MDA-MB-435, in the test on NCI-H23 lung and with NCI/ADR-RES ovarian was greater than 100 µM throughout. Besides, the TGI with OVCAR-3 ovarian, in the test on PC-3 prostate and in the test with UACC-62 melanoma was greater than 100 µM throughout.
Consider `O=c1[nH]nc(-c2ccccc2)n1/N=C/c1cccnc1`, for which the TGI in the test with HL-60(TB) leukemia, in the test on IGROV1 ovarian, in the test on MALME-3M melanoma, in the test on MDA-MB-435, in the test with MOLT-4 leukemia and in the test on NCI-H23 lung was greater than 100 µM each time. In addition, the TGI in the test on NCI/ADR-RES ovarian, with OVCAR-3 ovarian and with PC-3 prostate was greater than 100 µM in each case.
For the molecule `C(CCCCc1nnc(N2CCCCC2)o1)CCCc1nnc(N2CCCCC2)o1`, the TGI in the test on HL-60(TB) leukemia, with IGROV1 ovarian, in the test on MALME-3M melanoma, in the test on MDA-MB-435, in the test on MOLT-4 leukemia and with NCI-H23 lung was greater than 100 µM each time. Moreover, the TGI in the test with NCI/ADR-RES ovarian, in the test on OVCAR-3 ovarian and in the test with PC-3 prostate was greater than 100 µM throughout.
On to `CN1CCN(CCCBr)CC1`, for which the TGI in the test on HL-60(TB) leukemia, with IGROV1 ovarian, with MALME-3M melanoma, in the test on MDA-MB-435, with NCI-H23 lung and with NCI/ADR-RES ovarian was greater than 100 µM in each case. Further, the TGI in the test with OVCAR-3 ovarian, in the test on PC-3 prostate and with UACC-62 melanoma was greater than 100 µM each time.
`O=C1c2cc3c(cc2CC12Cc1ccc4c(c1C2=O)CCCC4)CCCC3` (stereo not drawn): the TGI in the test on HL-60(TB) leukemia, in the test with IGROV1 ovarian, with MALME-3M melanoma, in the test with MDA-MB-435, in the test with MOLT-4 leukemia and with NCI-H23 lung was greater than 100 µM in each case. In addition, the TGI with NCI/ADR-RES ovarian, in the test with OVCAR-3 ovarian and in the test with PC-3 prostate was greater than 100 µM throughout.
For the molecule `CCOC(=O)c1cc2c3c(c(C(C)=O)c(O)c2[nH]1)N(CC(C)CC)CC3` (stereo not drawn), the TGI in the test with HL-60(TB) leukemia was greater than 100 µM; in the test on IGROV1 ovarian it was greater than 100 µM; with MALME-3M melanoma it was 81.4 µM; in the test with MDA-MB-435, greater than 100 µM; with MOLT-4 leukemia, greater than 100 µM; in the test with NCI-H23 lung it was greater than 100 µM. Further, the TGI in the test on NCI/ADR-RES ovarian, in the test on PC-3 prostate and with UACC-62 melanoma was greater than 100 µM throughout.
Consider `CCCCCC(C)SC1(C(=O)OC)CC(OC(C)=O)C(NC(C)=O)C([C@H](OC(C)=O)[C@@H](COC(C)=O)OC(C)=O)O1` (stereo partly drawn), for which the TGI in the test on HL-60(TB) leukemia, in the test on IGROV1 ovarian, in the test with MALME-3M melanoma, with MDA-MB-435, in the test on MOLT-4 leukemia and with NCI-H23 lung was greater than 100 µM throughout. Moreover, the TGI in the test with NCI/ADR-RES ovarian, in the test with OVCAR-3 ovarian and with PC-3 prostate was greater than 100 µM in each case.
Consider `CC1=NN(c2nc(N)nc(/C(C#N)=C/c3cccn3-c3cc(Cl)cc(Cl)c3)n2)C(C)(C)C1`, for which the TGI in the test with HL-60(TB) leukemia, with IGROV1 ovarian, in the test with MALME-3M melanoma, with MDA-MB-435, in the test on NCI-H23 lung and in the test with NCI/ADR-RES ovarian was greater than 100 µM throughout. Further, the TGI in the test with OVCAR-3 ovarian, with PC-3 prostate and in the test on UACC-62 melanoma was greater than 100 µM in each case.
Turning to `Oc1c([Si](c2ccccc2)(c2ccccc2)c2ccccc2)cc2ccccc2c1-c1c(O)c([Si](c2ccccc2)(c2ccccc2)c2ccccc2)cc2ccccc12`, the TGI in the test on HL-60(TB) leukemia, in the test with IGROV1 ovarian, in the test with MALME-3M melanoma, in the test on MDA-MB-435, with MOLT-4 leukemia and in the test with NCI-H23 lung was greater than 100 µM each time. Besides, the TGI in the test with NCI/ADR-RES ovarian, in the test with PC-3 prostate and in the test with UACC-62 melanoma was greater than 100 µM throughout.
In the case of `CCN(C(=S)N[C@H](C(=O)N[C@@H](C)C(=O)OC)C(C)C)c1ccccc1`, the TGI in the test on IGROV1 ovarian was greater than 100 µM; with MALME-3M melanoma it was 98.2 µM; in the test on MDA-MB-435, greater than 100 µM; with MOLT-4 leukemia, greater than 100 µM; in the test with NCI-H23 lung it was greater than 100 µM; in the test on NCI/ADR-RES ovarian, greater than 100 µM. Moreover, the TGI in the test with OVCAR-3 ovarian, with PC-3 prostate and with UACC-62 melanoma was greater than 100 µM throughout.
As to `COc1ccc(-c2cc(-c3cc4cc(Br)ccc4nc3Cl)c(C#N)c(N)n2)cc1`, the TGI in the test with HL-60(TB) leukemia, with IGROV1 ovarian, in the test on MALME-3M melanoma, in the test on MDA-MB-435, with MOLT-4 leukemia and with NCI-H23 lung was greater than 12.5 µM each time. The TGI in the test on NCI/ADR-RES ovarian, in the test on OVCAR-3 ovarian and with PC-3 prostate was greater than 12.5 µM in each case.
As for `CC(=O)Oc1c2oc3ccc(Cl)cc3c(=O)c2c(O)c2ccsc12`, the TGI in the test on HL-60(TB) leukemia, in the test on MALME-3M melanoma, in the test on MDA-MB-435, with NCI-H23 lung, in the test on NCI/ADR-RES ovarian and with OVCAR-3 ovarian was greater than 100 µM each time. Also, the TGI in the test on PC-3 prostate and with UACC-62 melanoma was greater than 100 µM throughout.
As for `CCN(CC)c1ccc2cc(C(=O)Nc3cccc4ccccc34)c(=N)oc2c1`, the TGI in the test on HL-60(TB) leukemia, in the test with IGROV1 ovarian, in the test with MALME-3M melanoma, in the test with MDA-MB-435, in the test with NCI/ADR-RES ovarian and in the test on PC-3 prostate was greater than 100 µM each time. In the test on UACC-62 melanoma, the TGI is greater than 100 µM.

For the origin of these results see PubChem BioAssay (NCI).
